Results on four compounds are retold here after patent US20240360194A1, “New Peptides as Potent and Selective GIP Receptor Agonists” (Sanofi, priority 2021, published 2024).

Broadly, the EC50 is the concentration giving half of the maximal effect. Broadly, the Emax is the size of the effect at its maximum, as opposed to the concentration needed.

One data set deals with T1, human GIP receptor (Homo sapiens, UniProt P48546).
T1 construct: human adipocytes endogenously expressing the human GIP receptor; host or cells: human preadipocytes (Lonza) differentiated to adipocytes
T1 sequence (P48546 22-466): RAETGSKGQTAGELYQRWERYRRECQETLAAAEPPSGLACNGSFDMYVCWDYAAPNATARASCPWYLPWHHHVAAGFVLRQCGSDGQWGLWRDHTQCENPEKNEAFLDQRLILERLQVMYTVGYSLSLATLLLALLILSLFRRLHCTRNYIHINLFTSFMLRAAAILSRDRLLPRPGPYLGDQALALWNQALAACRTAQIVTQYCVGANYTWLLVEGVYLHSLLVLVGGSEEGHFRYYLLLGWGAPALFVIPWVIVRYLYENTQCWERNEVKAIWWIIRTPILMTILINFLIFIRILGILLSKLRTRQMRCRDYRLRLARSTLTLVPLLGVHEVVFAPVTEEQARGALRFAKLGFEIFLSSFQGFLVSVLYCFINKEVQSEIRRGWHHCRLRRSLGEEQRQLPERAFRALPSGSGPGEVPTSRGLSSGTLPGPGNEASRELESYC
Kind of data set: In vitro cellular cAMP assay for GIP receptor efficacy (human adipocytes). The data set is classed as cell-based. The conditions noted are these: for EC50: read-out: hGIPR EC50; for Emax: read-out: hGIPR Emax. A digest of the protocol: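 Human preadipocytes expanded, then differentiated 6 days (insulin, dexamethasone, PPARγ agonist, 200 μM IBMX, L-thyroxine) before plating at 5000 cells/well. Test compound applied 30 min at room temperature; cAMP measured by HTRF after 1 h with lysis-buffer reagents, read as 665/620 nm fluorescence ratio.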
In general terms: Changes in cAMP serve as a functional read-out for many G protein-coupled receptors.

A short description of data set [1]: Chemical stability assessment (UHPLC-UV purity loss on storage in solution). Format: physicochemical. As for the experimental part:
Purity of a peptide batch was determined through UHPLC/MS prior to chemical stability measurement. The target concentration was 300 μM pure compound. Solutions from solid samples were prepared in the following buffer systems with a concentration of ˜300 μM compound based on the previously determined % purity: • Chemical stability buffer system A) 20 mM phosphate buffer pH 7.4, • Chemical stability buffer system B) 8 mM phosphate buffer pH 7.4, 14 mg/ml propylene glycol, 5.5 mg/ml phenol • Chemical stability buffer system C) 100 mM phosphate buffer pH 7.4, 2.7 mg/ml m-cresol
Prepared solutions were filtered through […] pore size and filled into sterilized glass containers under laminar flow conditions.
Glass containers were stored for 28 days at 5 and 40° C. After this time, the samples were centrifuged for 15 min at 2500 RCF. Then 1.5 μl of the undiluted supernatant were analysed with UHPLC-UV.
The chemical stability was rated through the relative loss of purity calculated by the equation: […]
The purity is calculated as
The analytical methods used were Analytical UHPLC Method B or C.
Peptide samples were prepared in Chemical stability buffer system A or B and stability was assessed as described in Methods.

A short description of data set [2]: ThT assay for the assessment of physical stability (fibrillation). Format: physicochemical. Conditions: ThT buffer system A: 100 mM phosphate buffer pH 7.4; 3 mg/ml, 37° C., shaking. From the text:
Low physical stability of a peptide solution may lead to amyloid fibril formation, which is observed as well-ordered, thread-like macromolecular structures in the sample, which eventually may lead to gel formation. Thioflavin T (ThT) is widely used to visualize and quantify the presence of misfolded protein aggregates [Biancalana et al., Biochim. Biophys. Acta 2010, 1804(7), 1405]. […] Enzymol. 1999, 309, 274]. The time course for fibril formation often follows the characteristic shape of a sigmoidal curve and can be separated into three regions: a lag phase, a fast growth phase, and a plateau phase. The typical fibril formation process starts with the lag phase in which the amount of partially folded peptide turned into fibrils is not significant enough to be detected. The lag-time corresponds to the time the critical mass of the nucleus is built. Afterwards, a drastic elongation phase follows, and fibril concentration increases rapidly. Investigations were carried out to determine fibrillation tendencies under stress conditions by shaking at 37° C. within Fluoroskan Ascent FL or Fluoroskan Ascent. For the tests in Fluoroskan Ascent (FL), 200 μl sample were placed into a 96-well mictrotiter plate PS, flat bottom, Greiner Fluotrac No. 655076. Plates were sealed with Scotch Tape (Qiagen). Samples were stressed by continuous cycles of 10 sec shaking at 960 rpm and 50 sec rest period at 37° C. The kinetic was monitored by measuring fluorescence intensity every 20 min. Peptides were diluted in a buffer system to a final concentration of 3 mg/ml. 20 μl of a 10.1 mM ThT solution in H2O were added to 2 ml of peptide solution to receive a final concentration of 100 μM ThT. For each sample eight replicates were tested. • ThT buffer system A) 100 mM phosphate buffer pH 7.4 • ThT buffer system B) 100 mM phosphate buffer pH 7.4, 2.7 mg/ml m-cresol Lag time in hours (h) in Thioflavin T (ThT) assay of peptide samples was determined in ThT buffer system A as described in Methods.

Setting [3] is: Chemical stability buffer system A: 20 mM phosphate buffer pH 7.4, ~300 μM.

SMILES strings stand for the structures. Numbered stars: 1 amine (or outer) side, 2 acyl side, 3 side chain; on linkers, the order of the positions; unused ones are H or OH. Square brackets hold non-standard residues; d marks the D form. Side chains are listed from the residue outwards. Peptide text beside a SMILES is read from it. * marks the point of attachment. C18 diacid = O=C(O)CCCCCCCCCCCCCCCCC(=O)*; γGlu = O=C(O)[C@H](CCC(=O)[*:2])N[*:1]; AEEA = NCCOCCOCC(=O)O; Aib = CC(C)(N)C(=O)O

`CC[C@H](C)[C@H](NC(=O)[C@H](Cc1ccccc1)NC(=O)[C@H](CCC(=O)O)NC(=O)[C@H](CCC(=O)O)NC(=O)[C@H](CCC(N)=O)NC(=O)[C@H](Cc1c[nH]cn1)NC(=O)[C@@H](NC(=O)[C@H](CCCNC(=N)N)NC(=O)[C@H](CC(=O)O)NC(=O)[C@H](CCCCNC(=O)COCCOCCNC(=O)COCCOCCNC(=O)CC[C@H](NC(=O)CCCCCCCCCCCCCCCCC(=O)O)C(=O)O)NC(=O)C(C)(C)NC(=O)[C@@H](NC(=O)[C@H](CO)NC(=O)[C@H](CC(C)C)NC(=O)[C@H](CC(=O)O)NC(=O)[C@H](CO)NC(=O)[C@@H](NC(=O)[C@H](Cc1ccccc1)NC(=O)[C@@H](NC(=O)CNC(=O)[C@H](CCC(=O)O)NC(=O)C(C)(C)NC(=O)[C@@H](N)Cc1ccc(O)cc1)[C@@H](C)O)[C@@H](C)CC)[C@@H](C)CC)[C@@H](C)CC)C(=O)N[C@@H](CCC(=O)O)C(=O)N[C@@H](Cc1c[nH]c2ccccc12)C(=O)N[C@@H](CC(C)C)C(=O)N[C@@H](CC(C)C)C(=O)N[C@@H](C)C(=O)N[C@@H](CCC(N)=O)C(=O)N[C@@H](CCCNC(=N)N)C(=O)NCC(N)=O` [SEQ ID NO: 4, H2N-Y-Aib-E-G-T-F-I-S-D-L-S-I-Aib-K[{AEEA}2-gGlu-C18OH]-D-R-I-H-Q-E-E-F-I-E-W-L-L-A-Q-R-G-NH2]: at human GIP receptor, the EC50 came out at 2.4 nM and the Emax was 134%. Moreover, the “Relative purity loss over 28 days at 40° C.” value (“Relative purity loss” below) in data set [1] (setting [3]) was determined as 5.1%. In data set [2], the “Increase in FI” value is given as “no” and the “Lag time before increase” value is reported as over 45 h.
In the case of `CC[C@H](C)[C@H](NC(=O)[C@H](CCCNC(=N)N)NC(=O)[C@H](CC(=O)O)NC(=O)[C@H](CCCCNC(=O)COCCOCCNC(=O)COCCOCCNC(=O)CC[C@H](NC(=O)CCCCCCCCCCCCCCCCC(=O)O)C(=O)O)NC(=O)C(C)(C)NC(=O)[C@@H](NC(=O)[C@H](CO)NC(=O)[C@H](CC(C)C)NC(=O)[C@H](CC(=O)O)NC(=O)[C@H](CO)NC(=O)[C@@H](NC(=O)[C@H](Cc1ccccc1)NC(=O)[C@@H](NC(=O)CNC(=O)[C@H](CCC(=O)O)NC(=O)C(C)(C)NC(=O)[C@@H](N)Cc1ccc(O)cc1)[C@@H](C)O)[C@@H](C)CC)[C@@H](C)CC)C(=O)N[C@@H](Cc1c[nH]cn1)C(=O)N[C@@H](CCC(N)=O)C(=O)NC(C)(C)C(=O)N[C@@H](CCC(=O)O)C(=O)N[C@@H](Cc1ccccc1)C(=O)N[C@H](C(=O)N[C@@H](CCC(=O)O)C(=O)N[C@@H](Cc1c[nH]c2ccccc12)C(=O)N[C@@H](CC(C)C)C(=O)N[C@@H](CC(C)C)C(=O)N[C@@H](C)C(=O)N[C@@H](CCC(N)=O)C(=O)N[C@@H](CCCNC(=N)N)C(=O)NCC(N)=O)[C@@H](C)CC` [SEQ ID NO: 6, H2N-Y-Aib-E-G-T-F-I-S-D-L-S-I-Aib-K[{AEEA}2-gGlu-C18OH]-D-R-I-H-Q-Aib-E-F-I-E-W-L-L-A-Q-R-G-NH2], at human GIP receptor, the EC50 stood at 1 nM and the Emax was 121%. The “Relative purity loss” value in data set [1] (setting [3]) is reported as 5.6%. The “Relative purity loss” value in data set [1] (Chemical stability buffer system B: 8 mM phosphate buffer pH 7.4, 14 mg/ml propylene glycol, 5.5 mg/ml phenol) amounted to 5.9%. Also, in data set [2], the “Increase in FI” value is given as “no” and the “Lag time before increase” value is over 45 h.
With `CC[C@H](C)[C@H](NC(=O)[C@H](CCCNC(=N)N)NC(=O)[C@H](CC(=O)O)NC(=O)[C@H](CCCCNC(=O)COCCOCCNC(=O)COCCOCCNC(=O)CC[C@H](NC(=O)CCCCCCCCCCCCCCCCC(=O)O)C(=O)O)NC(=O)C(C)(C)NC(=O)[C@@H](NC(=O)[C@H](CO)NC(=O)[C@H](CC(C)C)NC(=O)[C@H](CC(=O)O)NC(=O)[C@H](CO)NC(=O)[C@@H](NC(=O)[C@@](C)(CC)NC(=O)[C@@H](NC(=O)CNC(=O)[C@H](CCC(=O)O)NC(=O)C(C)(C)NC(=O)[C@@H](N)Cc1ccc(O)cc1)[C@@H](C)O)[C@@H](C)CC)[C@@H](C)CC)C(=O)N[C@@H](Cc1c[nH]cn1)C(=O)N[C@@H](CCC(N)=O)C(=O)NC(C)(C)C(=O)N[C@@H](CCC(=O)O)C(=O)N[C@@H](Cc1ccccc1)C(=O)N[C@H](C(=O)N[C@@H](CCC(=O)O)C(=O)N[C@@H](Cc1c[nH]c2ccccc12)C(=O)N[C@@H](CC(C)C)C(=O)N[C@@H](CC(C)C)C(=O)N[C@@H](C)C(=O)N[C@@H](CCC(N)=O)C(=O)N[C@@H](CCCNC(=N)N)C(=O)NCC(N)=O)[C@@H](C)CC` [SEQ ID NO: 16, H2N-Y-Aib-E-G-T-Iva-I-S-D-L-S-I-Aib-K[{AEEA}2-gGlu-C18OH]-D-R-I-H-Q-Aib-E-F-I-E-W-L-L-A-Q-R-G-NH2], at human GIP receptor, the EC50 amounted to 0.6 nM and the Emax came out at 91%. In data set [2], the “Increase in FI” value is “no” and the “Lag time before increase” value is given as over 45 h.
Turning to `CC[C@H](C)[C@H](NC(=O)[C@H](CCCNC(=N)N)NC(=O)[C@H](CCC(=O)O)NC(=O)[C@H](CCCCNC(=O)COCCOCCNC(=O)COCCOCCNC(=O)CC[C@H](NC(=O)CCCCCCCCCCCCCCCCC(=O)O)C(=O)O)NC(=O)C(C)(C)NC(=O)[C@@H](NC(=O)[C@H](CO)NC(=O)[C@H](CC(C)C)NC(=O)[C@H](CC(=O)O)NC(=O)[C@H](CO)NC(=O)[C@@H](NC(=O)[C@H](Cc1ccccc1)NC(=O)[C@@H](NC(=O)CNC(=O)[C@H](CCC(=O)O)NC(=O)C(C)(C)NC(=O)[C@@H](N)Cc1ccc(O)cc1)[C@@H](C)O)[C@@H](C)CC)[C@@H](C)CC)C(=O)N[C@@H](Cc1c[nH]cn1)C(=O)N[C@@H](CCC(N)=O)C(=O)NC(C)(C)C(=O)N[C@@H](CCC(=O)O)C(=O)N[C@@H](Cc1ccccc1)C(=O)N[C@H](C(=O)N[C@@H](CCC(=O)O)C(=O)N[C@@H](Cc1c[nH]c2ccccc12)C(=O)N[C@@H](CC(C)C)C(=O)N[C@@H](CC(C)C)C(=O)N[C@@H](C)C(=O)N[C@@H](CCC(N)=O)C(=O)NCC(=O)N1CCC[C@H]1C(=O)N[C@@H](CO)C(=O)N[C@@H](CO)C(=O)NCC(=O)N[C@@H](C)C(=O)N1CCC[C@H]1C(=O)N1CCC[C@H]1C(=O)N1CCC[C@H]1C(=O)N[C@@H](CO)C(N)=O)[C@@H](C)CC` [SEQ ID NO: 21, H2N-Y-Aib-E-G-T-F-I-S-D-L-S-I-Aib-K[{AEEA}2-gGlu-C18OH]-E-R-I-H-Q-Aib-E-F-I-E-W-L-L-A-Q-G-P-S-S-G-A-P-P-P-S-NH2] (H-Y[Aib]EGTFISDLSI[Aib]K([AEEA-AEEA-γGlu-C18 diacid])ERIHQ[Aib]EFIEWLLAQGPSSGAPPPS-NH2), at human GIP receptor, the Emax was found to be 120%. Further, in data set [2], the “Increase in FI” value is “no” and the “Lag time before increase” value is listed as over 45 h.
